Data published in US20220000860A1, “COMPOUNDS, COMPOSITIONS, AND METHODS FOR TREATING HUMAN IMMUNODEFICIENCY VIRUS” (OYAGEN, INC., priority 2017, published 2022).

Assays:
00KE_KER2008 (Subtype A) = assay: PBMC Acute Infection, 00KE_KER2008; assay type: cell-based, HIV; conditions: Human immunodeficiency virus 1, PBMC, isolate 00KE-KER2008, subtype A, RT activity readout; for EC50: read-out: EC50; for EC90: read-out: EC90
Procedure: (§1) PHA-stimulated cells from at least two normal donors were pooled (i.e. mixed together), diluted in fresh medium to a final concentration of 1×10^6 cells/mL, and plated in the interior wells of a 96-well round bottom microplate at 50 μL/well (5×10^4 cells/well). Pooling of mononuclear cells from more than one donor was used to minimize the variability observed between individual donors in quantitative and qualitative differences in HIV infection and overall response to the PHA and IL-2 of primary lymphocyte populations. Each plate contained virus control wells (cells plus virus) and experimental wells (drug plus cells plus virus) of either 00KE_KER2008 (Subtype A), IIIB (Subtype B), or 98US_MSC5016 (Subtype C). Test drug dilutions were prepared at a 2×concentration and 100 μL of each concentration was placed in appropriate wells. Fifty μL of a predetermined dilution of virus stock was placed in each test well (final MOI≅0.1). After this period, cell-free supernatant samples were collected for analysis of reverse transcriptase (RT) activity with an RT assay. […] In the Table below SI50=CC50/EC50 and SI90=CC90/EC90.

98US_MSC5016 (Subtype C) = assay: PBMC Acute Infection, 98US_MSC5016; assay type: cell-based, HIV; conditions: Human immunodeficiency virus 1, PBMC, isolate 98US_MSC5016, subtype C, RT activity readout; for EC50: read-out: EC50; for EC90: read-out: EC90
Procedure: as §1

[1] = PBMC Acute Infection, cytotoxicity (CC50/CC90); assay type: cell-based; conditions: human
Procedure: as §1

PBMCs = assay: PBMC Acute Infection, cytotoxicity (CC50/CC90); assay type: cell-based
Procedure: as §1

topoisomerase I (TOP1) = biological target: T1, topoisomerase I (TOP1) (Homo sapiens, UniProt P11387); assay: topoisomerase I inhibition
T1 sequence (P11387 1-765): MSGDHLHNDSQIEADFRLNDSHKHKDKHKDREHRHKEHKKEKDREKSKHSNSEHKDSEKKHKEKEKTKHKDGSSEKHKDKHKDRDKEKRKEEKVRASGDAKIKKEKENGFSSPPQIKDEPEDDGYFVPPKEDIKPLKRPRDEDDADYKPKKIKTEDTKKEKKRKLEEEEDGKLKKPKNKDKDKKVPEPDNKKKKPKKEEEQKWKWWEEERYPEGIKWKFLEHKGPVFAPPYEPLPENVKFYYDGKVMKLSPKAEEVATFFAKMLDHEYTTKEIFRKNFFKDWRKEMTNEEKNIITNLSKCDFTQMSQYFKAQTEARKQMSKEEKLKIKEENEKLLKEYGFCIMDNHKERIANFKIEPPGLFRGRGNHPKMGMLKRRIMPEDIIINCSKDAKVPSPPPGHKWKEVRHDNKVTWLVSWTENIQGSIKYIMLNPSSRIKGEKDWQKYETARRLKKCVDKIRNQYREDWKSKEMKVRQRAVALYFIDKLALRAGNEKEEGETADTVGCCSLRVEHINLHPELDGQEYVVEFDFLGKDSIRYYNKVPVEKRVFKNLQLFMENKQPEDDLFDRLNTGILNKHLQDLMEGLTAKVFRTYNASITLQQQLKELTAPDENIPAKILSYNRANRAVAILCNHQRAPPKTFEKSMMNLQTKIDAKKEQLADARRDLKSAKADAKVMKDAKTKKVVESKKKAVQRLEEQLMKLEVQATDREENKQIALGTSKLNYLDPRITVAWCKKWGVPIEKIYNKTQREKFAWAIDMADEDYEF

[2] = PHA-stimulated PBMCs pooled from at least two normal donors, row of isolate 00KE-KER2008, subtype A
[3] = row of isolate 98US_MSC5016, subtype C
[4] = row of isolate 00KE-KER2008, subtype A

Structure (SMILES)	EC50 (00KE_KER2008 (Subtype A)) [nM]	EC90 (00KE_KER2008 (Subtype A)) [nM]	EC50 (98US_MSC5016 (Subtype C)) [nM]	EC90 (98US_MSC5016 (Subtype C)) [nM]	CC50 [1, 2] [nM]	CC90 [1, 2] [nM]	CC50 ([1]; PHA-stimulated PBMCs pooled from at least two normal donors, row of isolate 98US_MSC5016, subtype C) [nM]	CC50 ([1]; PHA-stimulated PBMCs pooled from at least two normal donors, row of isolate IIIB, subtype B) [nM]	CC90 (PBMCs; [3]) [nM]	CC90 (PBMCs; row of isolate IIIB, subtype B) [nM]	inhibition of topoisomerase I (TOP1) (result in words) (topoisomerase I (TOP1))	CC50 [1, 4] [nM]	CC90 [1, 4] [nM]	CC50 [1, 3] [nM]	CC50 ([1]; row of isolate IIIB, subtype B) [nM]
CCc1c2c(nc3ccc(N)cc13)-c1cc3c(c(=O)n1C2)CNC(=O)[C@]3(O)CC [Compound O5-SN, (S)-9-Amino-4,11-diethyl-4-hydroxy-1,2-dihydroquinolino[2′,3′:3,4]pyrrolo[1,2-b][2,7]naphthyridine-3,14(4H,12H)-dione]	6	18	6	20	2530	> 100000	2530	6290	> 100000	> 100000	do not inhibit				
CCc1c2c(nc3ccc(O)cc13)-c1cc3c(c(=O)n1C2)CNC(=O)[C@]3(O)CC [SN38-L, (S)-4,11-Diethyl-4,9-dihydroxy-1,2-dihydroquinolino[2′,3′:3,4]pyrrolo[1,2-b][2,7]naphthyridine-3,14(4H,12H)-dione]	4	15	4	16							do not inhibit	1180	27900	1180	5790
